Measured values: US20100292257A1, “USES OF 2-[PIPERIDINYL] METHYL-2, 3-DIHYDROIMIDAZO [1,2-C] QUINAZOLIN-5 (6H)-ONE FOR PROVIDING AN ANALGESIC EFFECT, ANTI-ALLERGIC EFFECT AND HISTAMINE H1 RECEPTOR ANTAGONISM EFFECT” (Medical and Pharmaceutical Industry Technology and …, priority 2007, published 2010)

Experiments:
Histamine H1 Receptor = target: T1, Histamine H1 Receptor (Rattus norvegicus, UniProt P31390); assay: Histamine H1 antagonism (histamine-induced wheal); type: in vivo, rats; conditions: for Total Score: 1 h before intradermal histamine, wheal diameter score, group of five rats, vehicle 50; for Inhibition (%): inhibition of histamine-induced blue colored wheal vs vehicle
T1 construct: immediately challenged with two intradermal injection of histamine; from tissue; host or cells: living Wistar derived male rats (skin, intradermal histamine challenge)
T1 sequence (P31390 whole entry): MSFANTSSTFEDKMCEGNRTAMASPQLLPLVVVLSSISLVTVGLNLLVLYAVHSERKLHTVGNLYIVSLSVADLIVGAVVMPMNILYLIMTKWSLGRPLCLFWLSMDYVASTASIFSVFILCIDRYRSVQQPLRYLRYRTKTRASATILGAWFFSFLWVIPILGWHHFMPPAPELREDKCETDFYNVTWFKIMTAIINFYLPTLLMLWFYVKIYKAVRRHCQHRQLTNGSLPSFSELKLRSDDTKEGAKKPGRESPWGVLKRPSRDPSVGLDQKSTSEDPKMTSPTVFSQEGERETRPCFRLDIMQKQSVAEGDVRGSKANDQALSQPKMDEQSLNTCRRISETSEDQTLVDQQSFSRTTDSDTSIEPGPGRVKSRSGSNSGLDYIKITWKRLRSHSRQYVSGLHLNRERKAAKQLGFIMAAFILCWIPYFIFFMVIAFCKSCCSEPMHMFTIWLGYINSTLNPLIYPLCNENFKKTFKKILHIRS
Protocol: After one hour, animals were injected with Evans Blue dye (5 mg/0.5 ml/rat) intravenously and immediately challenged with two intradermal injection of histamine (each 30 μg/0.05 ml). The animals were sacrificed 30 minutes later. The two wheal diameters were then measured for each animal and scored as follows: • Score 0: diameter<0.05 cm • Score 1: diameter 0.05-0.20 cm • Score 2: diameter 0.2-0.4 cm • Score 3: diameter 0.4-0.6 cm • Score 4: diameter 0.6-0.8 cm • Score 5: diameter>0.8 cm
Maximum possible score for each animal total 5×2=10.

Wistar derived male rats = assay: Passive cutaneous anaphylaxis; type: in vivo; conditions: for Total Score: wheal diameter score, group of five rats, vehicle 50
Protocol: A group of five Wistar derived male rats weighing 80±20 g was passively sensitized 16 hours earlier by intradermal injection of reaginic antiovalbumin serum (0.5 ml) on two spots of the dorsal surface. […] Within one hour after administration of the above substances, the animals were challenged intravenously with a mixture of ovalbumin (1 mg) and Evans Blue dye (5 mg) and sacrificed 30 minutes later. The two wheal diameters were measured for each animal and scored as follows: • Score 0: diameter<0.05 cm • Score 1: diameter 0.05-0.20 cm • Score 2: diameter 0.2-0.4 cm • Score 3: diameter 0.4-0.6 cm • Score 4: diameter 0.6-0.8 cm • Score 5: diameter>0.8 cm
Maximum possible score for each animal total 5×2=10. [Reference: Goose, J. and Blair, A. M. J. N. Passive cutaneous anaphylaxis in the rat, induced with two homologous reagin-like antibodies and its specific inhibition with disodium chromoglycate. Immunology 16: 749-760, 1969.]
(Total score of vehicle group−Total score of tested group)/(Total score of vehicle group)×100%

[1] = system: CD-1 (Crl.) derived male mice; assay: Acetic acid-induced writhing assay; type: in vivo; conditions: 1 h before acetic acid 0.5%, 20 ml/kg i.p., writhes 5th-10th min, vehicle 12.4 ± 1.5
Protocol: Vehicle (2% Tween 80, 10 ml/kg), PDC-130 or aspirin (100 mg/kg) was administered orally to groups of eight CD-1 (Crl.) derived male mice, weighing 24±2 g, 1 hour before intraperitoneal injection of acetic acid (0.5%, 20 ml/kg). The number of writhes of animals was observed and recorded during a period of time from the 5th to the 10th minutes period after acetic acid administration. [Reference: Inoue. K., Motonaga, A. and Nishimura, T. Mechanism of antiinflammatory action of etodolac. Arzneim-Forsch./Drug Res. 41: 235-239, 1991.]

[2] = system: CD-1 (Crl.) derived male mice; assay: Phenylquinone (PQ)-induced writhing assay; type: in vivo; conditions: 1 h before phenylquinone 2 mg/kg i.p., writhes 5th-10th min, vehicle 15.1 ± 1.4
Protocol: Vehicle (2% Tween 80, 10 ml/kg), PDC-130 or aspirin was orally administered to a group of eight CD-1 (Crl.) derived male mice weighing 24±2 g. One hour later, phenylquinone (2 mg/kg) was given by intraperitoneal injection. […] of animals was observed and recorded during a period of time from the 5th to 10th minutes after PQ administration, [Reference: Siegmund, E, Cadmus, R. and Lu, G. A method for evaluating both non-narcotic and narcotic analgesics. Proc. Soc. Exp. Biol. Med. 952: 729-731, 1957.]

**Q.** Which results are given for `O=C(c1ccc(F)cc1)C1CCN(CC2CN3C(=O)Nc4ccccc4C3=N2)CC1` (stereo not drawn) [PDC-130, 2-[1-(4-p-fluorobenzoyl)piperidinyl]methyl-2,3-dihydroimidazo[1,2-c]-quinazolin-5(6H)-one]?
**A.** Total Score (Histamine H1 Receptor; 3 mg/kg orally): 20; Inhibition (%) (Histamine H1 Receptor; 3 mg/kg orally): 60%; Total Score (Histamine H1 Receptor; 10 mg/kg orally): 14; Inhibition (%) (Histamine H1 Receptor; 10 mg/kg orally): 72%; Total Score (Histamine H1 Receptor; 30 mg/kg orally): 10; Inhibition (%) (Histamine H1 Receptor; 30 mg/kg orally): 80%; Inhibition (%) (Wistar derived male rats; 3 mg/kg orally, inhibition of passive cutaneous anaphylaxis blue colored wheal vs vehicle): 68%; Total Score (Wistar derived male rats; 3 mg/kg orally): 16; Inhibition (%) (Wistar derived male rats; 10 mg/kg orally, inhibition of passive cutaneous anaphylaxis blue colored wheal vs vehicle): 80%; Total Score (Wistar derived male rats; 10 mg/kg orally): 10; Inhibition (%) (Wistar derived male rats; 30 mg/kg orally, inhibition of passive cutaneous anaphylaxis blue colored wheal vs vehicle): 80%; Total Score (Wistar derived male rats; 30 mg/kg orally): 10; Number of Writhing ([1]; 0.03 mg/kg orally): 12.1 ± 1.6; Number of Writhing ([1]; 0.1 mg/kg orally): 5.0 ± 1.0; Number of Writhing ([1]; 0.3 mg/kg orally): 5.3 ± 1.1; Number of Writhing ([1]; 1 mg/kg orally): 2.1 ± 1.1; Number of Writhing ([2]; 0.03 mg/kg orally): 12.1 ± 1.6; Number of Writhing ([2]; 0.1 mg/kg orally): 6.4 ± 1.6; Number of Writhing ([2]; 0.3 mg/kg orally): 5.3 ± 1.7; Number of Writhing ([2]; 1 mg/kg orally): 2.8 ± 1.2

**Q.** What does the source list for `CN1CCC(=C2c3ccccc3C=Cc3ccccc32)CC1` [Cyproheptadine, cyproheptadine, reference compound]?
**A.** Total Score (Wistar derived male rats; 1 mg/kg orally): 14; inhibition at 1 mg/kg (Wistar derived male rats; Rattus norvegicus, po, 1 mg/kg orally, inhibition of passive cutaneous anaphylaxis blue colored wheal vs vehicle): 72%

**Q.** Which results are given for `CC(=O)Oc1ccccc1C(=O)O` [Aspirin, aspirin, reference compound]?
**A.** Number of Writhing ([1]; 100 mg/kg orally): 2.4 ± 1.0; Number of Writhing ([2]; 100 mg/kg orally): 5.5 ± 1.5
